Results on two compounds are retold here after patent publication US20040048900A1, “Nicotine and/or nicotine agonists for the treatment of general anesthetic effects and side effects” (priority 2002, published 2004).

Values joined by “and” are separate entries in the source; they are usually repeats but may differ in a detail not shown here. Equal entries are not always repeated. “Also recorded” adds a separate entry of the source.

What is called IC50 is the concentration at which inhibition is half-maximal.

The test system of assay [1] is analgesic action of nicotine. Conditions: Bitner, 1998; cited from earlier work.
Assay [2] deals with ^3H-norepinephrine release from female mouse lumbar spinal cord slice. As to the kind of experiment: 3H-norepinephrine release from superfused spinal cord slice. Conditions: isoflurane 0.38%.
Excerpt: Spinal Cord Slice Preparation: The spinal cord was dissected from the mouse. Under CO2 narcosis the mouse was decapitated. The spinal column was removed and placed into cold dissection solution where the spinal cord was removed with a dissection microscope. The lumbar section of the cord was isolated and imbedded in a 3% low melting point agar (Fisher Scientific) block made in dissection solution. Transverse 400 micrometer slices were made using a Vibratone VT1000S slicing apparatus (Leica, Whetzlar, Germany). Slicing was performed in ice cold Krebs solution bubbled with 5%CO2/95%O2.
The cord slices were incubated in a solution of 1 ml of Krebs solution and 10 ul of 1-[7,8-^3H] noradrenaline in a closed environment surrounded by Krebs solution bubbled with CO2/O2 for 30 minutes. The slices were transferred into a superfusion and stimulation chamber (Warner Instruments Inc.,) where Krebs solution was allowed to perfuse over them for 30 minutes at a rate of 0.5 ml/min. The superfusion chamber thermostatically temperature controlled at 37° C. The solutions were pumped to the chamber at a constant rate of 0.5 ml/min using a Kwik-Pump 290 (Long). Following a 30 minute period for equilibration, collections were taken every 1-2.5 minutes. Ecolite scintillation fluid (15 ml) was then added to each collection vial. The samples were analyzed for radioactivity (CPM) using a Packard TRI CARB 2100 TR scintillation counter (Meriden, Conn.).
Dissection Krebs Solution (mM) NaCl 125, KCl 2.5, NaHCO3 26, NaH2PO4-H2O1.25, MgCl2 6,CaCl2 1.5, glucose 2.5. Perfusion Krebs Solution (mM) NaCl 125, KCl 2.5, NaHCO3 26, NaH2PO4—H2O 1.25, MgCl2 1,CaCl2 2, glucose 2.5.
After incubation with ^3H-norepinephrine, the cord slices were perfused with buffer for 30 minutes at 0.5 ml/minute. After equilibration, samples containing released ^3H-norepinephrine were collected at 2.5 minute intervals. After determination of baseline release, the slices were stimulated with 1 mM nicotine in the perfusion buffer.
The test system of a further assay is male and female mice. As to the kind of experiment: HPWL by gender, estrus stage, castration, oophorectomy. Format: in vivo. Conditions: isoflurane. Here is the method:
The ovary and oviduct was tied with a double 3.0 polysorb suture. The fascia was closed with 3.0 polysorb and the skin with 4.0 nylon. The procedure was repeated on the other side. The mouse was injected with buprenophine 1 mg/kg prior to emergence for pain control.
Estrogen can directly modulate nicotinic receptors at micromolar concentrations (Paradiso, 2001; Nakazawa, 2001; and Damaj, 2001). Estrogen receptors are co-localized with both nicotinic and muscarinic receptors (Hosli, 2001). Progesterone is inhibitory at nicotinic acetylcholine receptors (Paradiso, 2001; and Damaj, 2001). HPWL was tested at different phases of the female estrus cycle (FIG. 14). […] Oophorectomy (see methods) was performed on six week old female mice. After allowing two weeks for hormonal depletion, and surgical recovery HPWL was again tested.
Furthermore, testosterone was tested to see if it induced a state resistant to isoflurane hyperalgesia. Male mice were castrated and after two weeks for surgical recovery and hormone depletion, hyperalgesia in response to isoflurane was tested. […] In addition to the classical “female hormones”, female mice also have testosterone that is made by the ovary (Halling, 1989). […] Testosterone levels in females decrease after oophorectomy.

The next assay has as its system female mice. As to the kind of experiment: MAC and LORR of isoflurane. Format: in vivo. The text has this:
Isoflurane causes hyperalgesia in female mice. […] Increased HPWL occurred at concentrations above 0.86% that were associated with sedation. MAC in these animals was 1.5±0.1% and LORR (mean partial pressures bracketing postural response and lack of response to placing the animal in a supine position) occurred at 0.59 +0.2% isoflurane.
5-28 mice were studied per group.

Another assay deals with mice. From the text: Nicotinic acetylcholine receptors are involved in the mechanism of isoflurane hyperalgesia, and nicotinic inhibition could be the initiating event.
How could nicotinic inhibition cause hyperalgesia? Nicotine is thought to exert its analgesic action by increasing the release of norepinephrine, serotonin and acetylcholine onto the relay neurons in the dorsal horn of the spinal cord (Rao, 1996; and Reuter, 2000). Isoflurane might reduce pain threshold by inhibiting nicotinic acetylcholine receptors tonically active in potentiating the release of norepinephrine, serotonin and/or acetylcholine. To test the role of the α-adrenergic system, mice were treated systemically with the adrenergic neurotoxin DSP-4 to deplete norepinephrine levels (Jonsson, 1981). The DSP-4 mice 14 days after treatment were tested for HPWL in the presence of isoflurane alone or isoflurane with nicotine pretreatment (see methods).
To test the role of muscarinic receptors for acetylcholine, mice were treated with the nonspecific muscarinic antagonist, atropine. A cholinergic neurotoxin could not be used for these studies, because removing all cholinergic neurons would have nicotinic in addition to muscarinic effects. Instead, postsynaptic muscarinic blockade was used. ACh causes analgesia, at least in part due to muscarinic stimulation (Chiari, 1999; Smith, 1989; and Lavand'homme, 1999). […] High concentrations of atropine can block nicotinic acetylcholine receptors as well (Zwart, 1997).

Assay [3] addresses T1, human α4β2 nAChRs expressed in Xenopus oocytes (Homo sapiens, UniProt P17787+P43681).
T1 construct: expressed in transfected cells; host or cells: Xenopus laevis oocytes injected with cRNA (1:1 α4 to β2)
As to the kind of experiment: Two-microelectrode voltage clamp of ACh-activated currents in Xenopus oocytes. Format: cell-based. How it is done:
The human α4 and β2 type nAChRs were in a pSP64 expression vector. Standard techniques were used to linearize the vectors and use them as templates to make cRNA using SP6 as the polymerase. The human nicotinic clones were a gift from Dr. Jon Lindstrom, Ph.D. (Department of Neuroscience, University of Pennsylvania, Philadelphia, Pa.).
Xenopus laevis oocytes were removed from the females and defolliculated with collagenase. After the oocytes rested for 24 hours in L-15 oocyte medium, about 10 ng of a 1:1 ratio of α4 to β2 cRNA were injected into individual oocytes. A manual injector was used for this process (Nanoject; Drummond Scientific, Broomall, Pa.). The oocytes were incubated for 2-5 days in ND-96 medium (NaCl 96 mM, KCl 2 mM, MgCl2 1 mM, CaCl2 H2O 1.8 mM, HEPES 5 mM, Na-pyruvate 2.5 mM, theophylline 0.5 mM, and 10mg/L of gentamicin, adjusted to pH 7.5).
Whole oocytes were used to record currents using a Gene-Clamp 500 two-microelectrode voltage-clamp amplifier with an active ground (Axon Instruments, Inc., Foster, Cailf.). The recording electrodes were pulled from glass capillary tubing (Drummond, Broomall, Pa.) to obtain a resistance between 1 and 5 MΩ and filled with 3M KCl. Ba^2 Ringer's solution was used as the extracellular solution in order to avoid current amplification by calcium activated chloride currents (115 mM NaCl, 2.5 mM KCl, 1.8 mM BaCl2, 10 mM HEPES, 1 μM atropine, pH 7.4). Atropine was included to avoid activation of intrinsic muscarinic receptors. Experiments were performed at room temperature. Isoflurane was prepared from a saturated solution by serial dilution. Concentrations were verified by gas chromatography.
Oocytes were tested at a membrane potential of −60 mV. Bolus application of the agonist +/− indicated antagonist(s) was applied at a rate of 4 ml/min for a 2 second application.
Antagonists were pre-applied for 2 minutes prior to activation. Concentration response curves were made from the percent change in peak current from ACh activation in the presence of antagonist(s), compared to ACh alone. As the ACh concentration at central neuronal nAChRs is unknown, 1 mM ACh (saturating) was used to detect inhibition by isoflurane and mecamylamine experiments with mecamylamine. ACh 2 μM was used to detect potentiation by nicotine. Currents were measured in 5-8 cells for each data point. Clampex 7 (Axon instruments, Foster City, Calif.) was used for data acquisition.
Microcal Origins 5.0 (Microcal, Northampton, Mass.) was used for statistical calculations and graphical presentation. The in vitro data were fit to a modified Hill equation, y=100/(1+(x/IC50)^n), where IC50 is the concentration of drug at which of 50% of the response is inhibited and n is the Hill coefficient.

Assay [4] has as its system β2 nicotinic knockout male C57/B16 mice. As to the kind of experiment: HPWL in β2 nicotinic knockout mice. Format: in vivo. Conditions: vs wild type controls; 0.28% isoflurane, p<0.001. From the text: The subunit composition of the nicotinic receptors responsible for the analgesic effects of nicotinic agonists is controversial. […] Nicotinic antagonists specific for α7 containing nicotinic achetylcholine receptors can be analgesic in some settings (Damaj, 2000). […] The importance of the nicotinic β2 subunit in male C57/B16 mice and their generation matched wild type controls have been tested (a gift from J. P. Changeux, Institute Pasteur).

T1 sequence (P43681 29-627 limits assumed): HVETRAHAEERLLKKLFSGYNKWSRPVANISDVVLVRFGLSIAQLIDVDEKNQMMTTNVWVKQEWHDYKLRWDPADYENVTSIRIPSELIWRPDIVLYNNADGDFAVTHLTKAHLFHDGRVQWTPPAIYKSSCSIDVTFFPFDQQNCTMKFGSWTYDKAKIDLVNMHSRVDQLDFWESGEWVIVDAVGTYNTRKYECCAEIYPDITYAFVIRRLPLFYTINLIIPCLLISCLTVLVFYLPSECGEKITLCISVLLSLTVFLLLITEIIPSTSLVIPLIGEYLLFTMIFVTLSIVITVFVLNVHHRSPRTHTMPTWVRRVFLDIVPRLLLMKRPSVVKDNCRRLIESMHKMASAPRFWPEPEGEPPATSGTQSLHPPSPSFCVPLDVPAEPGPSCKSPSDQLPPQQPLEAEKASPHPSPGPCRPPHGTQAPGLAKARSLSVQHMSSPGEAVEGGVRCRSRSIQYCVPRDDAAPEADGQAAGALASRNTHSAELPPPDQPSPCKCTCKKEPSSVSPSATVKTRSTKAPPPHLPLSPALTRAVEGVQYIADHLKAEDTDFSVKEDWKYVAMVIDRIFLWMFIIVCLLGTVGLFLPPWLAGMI
T1 sequence (P17787 26-502): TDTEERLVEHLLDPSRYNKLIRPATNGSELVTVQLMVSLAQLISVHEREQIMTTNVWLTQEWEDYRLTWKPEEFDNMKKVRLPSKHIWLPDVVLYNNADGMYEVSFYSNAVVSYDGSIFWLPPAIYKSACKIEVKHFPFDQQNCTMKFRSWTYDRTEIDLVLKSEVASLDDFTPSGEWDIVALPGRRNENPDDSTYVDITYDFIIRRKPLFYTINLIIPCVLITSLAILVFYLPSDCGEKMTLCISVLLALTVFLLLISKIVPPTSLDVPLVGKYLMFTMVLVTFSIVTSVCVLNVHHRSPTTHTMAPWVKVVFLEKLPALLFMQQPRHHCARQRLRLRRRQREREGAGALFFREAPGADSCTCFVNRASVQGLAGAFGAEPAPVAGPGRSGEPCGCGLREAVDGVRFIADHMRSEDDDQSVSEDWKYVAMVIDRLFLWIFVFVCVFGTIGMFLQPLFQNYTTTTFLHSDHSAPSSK

As to `C[N+](C)(C)CCCCCC[N+](C)(C)C` [Hexamethonium], the “effect on the analgesic action of nicotine” value in assay [1] is reported as “has no effect on the analgesic action of nicotine”.
Consider `FC(F)OC(Cl)C(F)(F)F` (centres unmarked) [isoflurane], for which the basal norepinephrine release result in assay [2] is recorded as “basal norepinephrine release was reduced”. Besides, the “nicotine facilitated norepinephrine release” value in assay [2] (1 mM nicotine) was “no facilitation by nicotine”. In addition, the “hyperalgesic response after oophorectomy” value in the assay with male and female mice (female mice two weeks after oophorectomy) is “more pronounced”. Further, in the assay on male and female mice (high estrogen (stages 2 and 3) and high progesterone (stage 5)), the “hyperalgesic effect by estrus stage” value is “less hyperalgesic effect during these stages”. For the same compound, the “hyperalgesic response in male mice” value in the assay with male and female mice (intact males) is “less than that in females”. Further, in the assay with male and female mice (two weeks after castration), the “hyperalgesic response in castrated males” value was “increased hyperalgesic responses to isoflurane compared to intact males”. In addition, the MAC in the assay on female mice (isoflurane in these mice) was 1.4% and 1.5±0.1%. The LORR in the assay on female mice (mean partial pressures bracketing postural response and lack of response to supine placement) was 0.59 +0.2%. Besides, in the assay with mice (isoflurane, mice 14 days after DSP-4), the “hyperalgesic effect after norepinephrine depletion” value is “no hyperalgesic effect at any subanesthetic concentration”. For the same compound, in the assay with mice (mouse, in vivo), the “isoflurane concentration that caused maximal hyperalgesia” value was 0.38%. For the same compound, in assay [3], the “mode of antagonism at heteromeric nAChRs” value is listed as “non-competitive antagonists”. In assay [3] (1 mM ACh, −60 mV, room temperature, read-out: IC50 for inhibition of α4β2 nAChR), the half-maximal inhibitory concentration (IC50) is 44 µM. Further, in assay [4], the “hyperalgesic effect of isoflurane in β2 nicotinic knockout mice” value is recorded as “clearly reduced in these animals, but not absent; also recorded: Hyperalgesia was reduced”.
